For orientation: pKi means −log10 of the Ki, conventionally taken in molar units. Higher therefore signals a low Ki.

The record followed here is ChEMBL document CHEMBL4400558, “Optimization of Blood-Brain Barrier Permeability with Potent and Selective Human Neuronal Nitric Oxide Synthase Inhibitors Having a 2-Aminopyridine Scaffold” (J Med Chem, 2019).

The assay has as its target Nitric oxide synthase 1 (Homo sapiens, UniProt P29475).

pKi: −log10 of the molar value.

Chain of Nitric oxide synthase 1 (P29475 whole entry): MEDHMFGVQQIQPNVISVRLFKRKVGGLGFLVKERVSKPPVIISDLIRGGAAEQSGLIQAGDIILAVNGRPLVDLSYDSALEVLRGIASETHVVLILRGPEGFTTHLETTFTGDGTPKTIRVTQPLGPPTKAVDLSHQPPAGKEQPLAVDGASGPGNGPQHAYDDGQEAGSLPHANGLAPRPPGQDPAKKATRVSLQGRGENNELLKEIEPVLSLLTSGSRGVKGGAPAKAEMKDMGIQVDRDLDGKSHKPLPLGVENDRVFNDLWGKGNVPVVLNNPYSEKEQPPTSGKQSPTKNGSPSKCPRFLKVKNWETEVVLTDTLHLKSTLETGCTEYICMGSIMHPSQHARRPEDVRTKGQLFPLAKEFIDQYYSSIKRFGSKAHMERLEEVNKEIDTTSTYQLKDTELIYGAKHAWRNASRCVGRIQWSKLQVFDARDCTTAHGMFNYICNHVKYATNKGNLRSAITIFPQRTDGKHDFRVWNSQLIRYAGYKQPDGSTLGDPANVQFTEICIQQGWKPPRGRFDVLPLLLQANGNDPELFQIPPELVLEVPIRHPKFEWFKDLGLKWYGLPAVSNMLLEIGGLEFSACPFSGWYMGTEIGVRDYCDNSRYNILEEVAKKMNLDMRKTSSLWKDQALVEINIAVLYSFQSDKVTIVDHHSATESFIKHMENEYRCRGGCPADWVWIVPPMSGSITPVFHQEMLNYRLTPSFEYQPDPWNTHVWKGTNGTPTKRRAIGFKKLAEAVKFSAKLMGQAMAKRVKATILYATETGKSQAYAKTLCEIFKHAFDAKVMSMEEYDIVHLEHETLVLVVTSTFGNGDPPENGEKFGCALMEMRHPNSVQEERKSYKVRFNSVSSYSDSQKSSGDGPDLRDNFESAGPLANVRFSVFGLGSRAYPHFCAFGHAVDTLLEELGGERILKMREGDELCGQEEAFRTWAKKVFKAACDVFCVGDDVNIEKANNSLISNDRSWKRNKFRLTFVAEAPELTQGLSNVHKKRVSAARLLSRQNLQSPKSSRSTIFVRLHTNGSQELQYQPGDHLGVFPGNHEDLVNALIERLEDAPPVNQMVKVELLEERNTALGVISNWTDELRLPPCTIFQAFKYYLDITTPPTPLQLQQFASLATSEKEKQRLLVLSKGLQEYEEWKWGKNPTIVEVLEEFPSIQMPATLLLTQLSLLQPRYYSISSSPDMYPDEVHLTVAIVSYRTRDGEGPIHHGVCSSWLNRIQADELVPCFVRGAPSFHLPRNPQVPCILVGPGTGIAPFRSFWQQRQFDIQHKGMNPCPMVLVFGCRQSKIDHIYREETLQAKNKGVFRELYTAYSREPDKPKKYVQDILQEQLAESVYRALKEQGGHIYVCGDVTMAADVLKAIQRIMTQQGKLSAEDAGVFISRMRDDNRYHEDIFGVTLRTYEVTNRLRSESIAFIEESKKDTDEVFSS

For `Cc1cc(N)nc(CCc2cc(CCCN(C)C)cc(F)c2F)c1`, the pKi is 7.54.
